Data reported in EP4537846A2, “ANAVEX2-73 FOR THE TREATMENT OF ALZHEIMER S DISEASE” (priority 2017, dated 2018).

Tests used:
[1] = test system: amyloid toxicity in mice; conditions: cited from earlier work
[2] = test system: healthy male volunteers; test: Randomized, placebo-controlled single ascending dose Phase 1 study; type: in vivo
Procedure: See Poster: A Phase 1 Dose Escalation Study to Investigate Safety, Tolerability, and Pharmacokinetics of ANAVEX2-73 in Healthy Male Subjects, CNS Summit 2014, Boca Raton, FL, by Ole Voges, Ingo Weigmann, Norman Bitterlich, Christoph Schindler and Christopher Missling. […] Based on the frequency and intensity of […] adverse events (TEAEs) the maximum tolerable dose (MTD) and the minimum intolerable dose (MID) were defined as 55 mg and 60 mg, respectively.

[3] = test system: patients with Alzheimer's disease or presenting with the early signs of Alzheimer's disease; test: Single-patient treatment examples with intermittent dosing regimen; type: in vivo; conditions: person
Excerpt: The following examples show uses of ANAVEX2-73 in the treatment of patients with Alzheimer's disease or presenting with the early signs of Alzheimer's disease. The clinical determination that a patient may have Alzheimer's disease or is presenting with early signs of Alzheimer's disease is well known in the art. By way of example, the following references (and all publications cited herein) are incorporated by reference herein in their entireties: Dementia: From Diagnosis to Management - A Functional Approach 1st Edition, Psychology Press (February 17, 2009); Clinician's Guide to Psychological Assessment and Testing: With Forms and Templates for Effective Practice 1st Edition, Springer Publishing Company (September 18, 2012); Neurodegener. Dis. Manag. 5(3), 191-201 (2015); Artif. Intell. Med. 64(1), 59-74 (2015); Clin. Chem. 60(12), 1585-1586 (2014); and Metabolism 64(3 Suppl 1), S47-50 (2014).

[4] = biological target: sigma-1 (Homo sapiens, UniProt Q99720); conditions: sigma-1 receptor; 'is believed to bind'; cited from earlier work
[5] = test system: mild-to-moderate Alzheimer's disease patients; test: Phase 2a clinical trial: EEG peak alpha frequency (PAF); type: in vivo; conditions: twelve patients, day 36 vs baseline
Procedure: The 36-day multicenter randomized clinical trial included both male and female mild-to-moderate Alzheimer's disease patients. ANAVEX2-73 was administered to twelve subjects as an add-on therapy to the donepezil current standard of care. ANAVEX2-73 was administered according to a two-period on-off-on cross-over dosing regimen in which the subjects were administered ANAVEX2-73 for 12 days (1st period) followed by a 12-day wash-out period before being administered ANAVEX2-73 for a second 12-day period (2nd period). Those subjects that were administered ANAVEX2-73 by oral administration during the 1st period were administered ANAVEX2-73 intravenously during the 2nd period, and vice versa. About half of the subjects were administered a 30 mg oral dosage form while the other half of subjects were administered a 50 mg oral dosage form. […]
Resting electroencephalographic (EEG) activity and event related potentials (EEG/ERP) were used to assess the cognitive effects of ANAVEX2-73 administration. Event related potentials (ERPs) are voltage changes time-locked to some physical or mental occurrence in ongoing electrical brain activity, as recorded by EEG. […]
Subjects were tested using a three-stimulus oddball paradigm. […] Electroencephalographic (EEG) activity was recorded from seven electrode sites (Fz, Cz, Pz, F3, P3, F4, and P4) of the international 10-20 system using a COGNISION™ Headset (Neuronetrix). […]

[6] = test system: mild-to-moderate Alzheimer's disease patients; test: Phase 2a clinical trial: event related potentials (ERP), auditory P300, three-stimulus oddball paradigm; type: in vivo
Procedure: (§1) The 36-day multicenter randomized clinical trial included both male and female mild-to-moderate Alzheimer's disease patients. ANAVEX2-73 was administered to twelve subjects as an add-on therapy to the donepezil current standard of care. ANAVEX2-73 was administered according to a two-period on-off-on cross-over dosing regimen in which the subjects were administered ANAVEX2-73 for 12 days (1st period) followed by a 12-day wash-out period before being administered ANAVEX2-73 for a second 12-day period (2nd period). Those subjects that were administered ANAVEX2-73 by oral administration during the 1st period were administered ANAVEX2-73 intravenously during the 2nd period, and vice versa. About half of the subjects were administered a 30 mg oral dosage form while the other half of subjects were administered a 50 mg oral dosage form. The intravenous dosage was either 3 mg or 5 mg, with about half of the subjects administered 3 mg and the other half administered 5 mg.
Resting electroencephalographic (EEG) activity and event related potentials (EEG/ERP) were used to assess the cognitive effects of ANAVEX2-73 administration. Event related potentials (ERPs) are voltage changes time-locked to some physical or mental occurrence in ongoing electrical brain activity, as recorded by EEG. Event-related potentials (ERPs) provide a sensitive and reliable measure of the cognitive effects associated with early Alzheimer's disease. […] See for example, New Encycl. Neurosci., Oxford Academic Press, p. 13-18 (2009). For example, ERP tests on young presymptomatic individuals who carry mutations in the presenilin-1 and amyloid precursor protein genes show significant changes in ERP patterns years before the onset of behavioral symptoms and the development of Alzheimer's disease. See for example, Neurology 73, 1649-1655 (2009); Neurology 77, 469-475 (2011). […] For instance, ERP markers of cognitive function are increasingly altered in longitudinal studies on individuals with mild cognitive impairment (MCI) and Alzheimer's disease patients. See for example, Clin. Neurophysiol. 122, 1322-1326 (2011); Clin. Neurophysiol. 121, 194-199 (2010). […] See for example, Neurol. Neurochir. Pol. 35 Suppl 3, 37-43 (2001); Clin. Neuropharmacol. 25, 207-215 (2002); Neurosci. Biomed. Eng. 1, 34-39 (2013).
In particular, the auditory P300 component of the ERP has been widely applied in the study of age-related cognitive dysfunction because it is thought to reflect attentional and memory processes. Auditory P300 is a positive deflection occurring at about 300 ms from stimulus onset. It is generated by the activation of multiple neocortical and limbic regions. Auditory P300 has two functionally different components, an earlier P3a component that is maximal over frontocentral regions, and a later P3b component (hereafter "P300") that is maximal at the posterior scalp locations. See for example, Int. J. of Alzheimer's Dis. 2011, Article ID 653173, 1-7 (2011). P300 amplitude data collected as part of a double blind six month study for 15 patients with mild Alzheimer's disease on donepezil, as compared to a vitamin E baseline, has shown that P300 amplitude data correlates with ADAS-Cog and MMSE data for the same patients. See, Clin. Neuropharmacol. 25(4), 207-215 (2002).
Subjects were tested using a three-stimulus oddball paradigm. Stimuli comprised of standard tones (1000 Hz), target tones (2000 Hz) and unexpected distractor tones (white noise) that were played with probabilities of 0.75, 0.15, and 0.10. Tones were presented in pseudorandom order, so that target and distractor tones were never presented sequentially. Subjects were instructed to respond to the target stimuli by pressing a button with their dominant hand. For each test, between 300 and 400 stimuli were presented binaurally through insert ear phones at 70 dB volume. The tone duration for each stimulus was 100 ms with rise and fall times of 10 ms. The interstimulus interval was randomized between 1.5 and 2 s. […]

[7] = test system: mild-to-moderate Alzheimer's disease patients; test: Phase 2a clinical trial: MMSE and Cogstate scales; type: in vivo; conditions: preliminary; twelve subjects, on-off-on regimen
Procedure: as §1
(§2) 5-9, were achieved without any dose optimization. […] An additional 20 subjects will be studied during the remainder of the Phase 2a clinical trial. Phase 2b clinical trials, involving an additional 26-week extension of daily oral dosage administration of ANAVEX2-73 is on-going.

[8] = test system: muscarinic acetylcholine receptors; conditions: 'is believed to bind'; cited from earlier work
[9] = test system: mild-to-moderate Alzheimer's disease patients; test: Phase 2a clinical trial: safety profile; type: in vivo; conditions: during Phase 2a trials
Procedure: as §1, §2

[10] = single ascending oral doses, healthy subjects

Chain of sigma-1 (Q99720 whole entry): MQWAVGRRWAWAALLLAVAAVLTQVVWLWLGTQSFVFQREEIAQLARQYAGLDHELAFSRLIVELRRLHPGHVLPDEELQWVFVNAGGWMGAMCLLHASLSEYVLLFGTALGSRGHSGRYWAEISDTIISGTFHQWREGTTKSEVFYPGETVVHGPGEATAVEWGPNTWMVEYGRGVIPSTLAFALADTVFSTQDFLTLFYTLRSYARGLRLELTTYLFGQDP

CN(C)CC1CCOC1(c1ccccc1)c1ccccc1.Cl (stereo not drawn) [ANAVEX2-73, tetrahydro-N,N-dimethyl-2,2-diphenyl-3-furanmethanamine hydrochloride]
Aβ25-35-induced P-Akt decrease and P-GSK-3β increase ([1]; Aβ25-35 model): blocked | Aβ25-35-induced endogenous Aβ1-42 seeding ([1]; Aβ25-35 model): decrease | hyperphosphorylation of Tau on physiological epitopes (AT-8 antibody clone) and on pathological epitopes (AT-100 clone) ([1]; Aβ25-35 model, in the dose-range tested): attenuated | oxidative stress, caspases induction, cellular loss and learning and memory deficits ([1]; mice one week after i.c.v. injection of oligomeric Aβ25-35): attenuating | safety and tolerability ([2]; ascending single oral doses of 1 mg, 10 mg, 30 mg, 40 mg, 50 mg, and 55 mg, healthy subjects): safe and well tolerated | observed adverse events ([2]; at highest doses): moderate and reversible dizziness and headache | minimum intolerable dose (MID) ([2]; male, human, in vivo, po): 60 mg | Blood pressure and resting heart rate and other clinical parameters such as vital signs and 12-lead electrocardiogram (ECG) [2, 10]: did not show any clinically relevant or dose-dependent changes | QT interval and QTcB [2, 10]: did not reveal any clinically significant changes | pharmacokinetics [2, 10]: suitable for daily oral dosing | serious adverse events [2, 10]: No serious adverse events occurred | maximum tolerable dose (MTD) ([2]; single oral dose, healthy male volunteers): 55 mg | loss of cognitive function ([3]; 3 mg intravenously, 5 days on / 20 days off, one year): stabilizes | loss of cognitive function ([3]; 5 mg intravenously, 14 days on / 7 days off, one year): stabilizes | loss of cognitive function ([3]; 30 mg oral, 10 days on / 10 days off, 6 months): stabilizes | loss of cognitive function ([3]; 50 mg oral, 10 days on / 20 days off): stabilizes | loss of cognitive function ([3]; 50 mg oral, 14 days on / 7 days off, 6 months): stabilized | affinities [4]: low micromolar range | peak alpha frequency (PAF) [5]: higher than the baseline measurement of PAF | patients with improved P300 signal ([6]; 10 out of the 12 patients studied): 83% | Percentage Increase Over Baseline Data ([6]; P300 amplitude, Day 36 vs baseline, twelve patients, hydrochloride): 38% | percent P300 amplitude change compared to historical data for patients administered donepezil ([6]; after 1 month vs donepezil after 6 months): greater | P300 amplitude change compared to historical data for patients administered donepezil ([6]; day 36 (1 month) vs donepezil at the 1 month time point): about four times higher | False Alarms ([6]; target detection task, Day 36, twelve patients (baseline 2.67 ± 1.12)): 0.64 ± 0.26% | Button Press Accuracy ([6]; target detection task, Day 36, twelve patients (baseline 86.2 ± 4.47)): 87.5 ± 4.01% | Median Reaction Time ([6]; target detection task, Day 36, twelve patients (baseline 593 ± 33.0)): 534 ± 42.0 ms | P300 ERP wave data ([6]; twelve patients, day 36 vs baseline, on-off-on regimen (30 or 50 mg oral, 3 or 5 mg i.v.), add-on to donepezil): improved measured cognitive performance as compared to the baseline data | Mini Mental State Examination (MMSE) and Cogstate scale changes [7]: consistent with the observed trend of the cognitive EEG/ERP effect | affinities [8]: low micromolar range | safety profile [9]: consistent with the Phase 1 data
